Results from publication PMC9745132, “Visualization of real-time receptor endocytosis in dopamine neurons enabled by NTSR1-Venus knock-in mice” (Frontiers in Cellular Neuroscience, 2022).
Several values for one entry are separate records, joined by “and”; a condition that tells them apart may be missing. Identical values can stand only once. Counter-ions that a name gives are not always drawn. *1 amine or outer side, *2 acyl side, *3 side chain or, on linkers, in order; H or OH if unused. Where a SMILES comes first, the peptide text is derived from it. [ ]: non-standard residue; d: D form. X1 = NCCCC[C@H](N)CN([C@@H](CCCCN)C(=O)[*:2])[*:1]; Tle = CC(C)(C)[C@H](N)C(=O)O

What was measured:
NTSR1-Venus [1] = molecular target: T1, NTSR1-Venus (Mus musculus, UniProt O88319); test: Gq activation ebBRET (Gq EMTA, p63RhoGEF-RlucII / rGFP-CAAX) in HEK293 cells, Venus tagged NTSR1; format: cell-based; conditions: mean ± SEM
T1 construct: monitoring endogenous NTSR1-Venus receptor endocytosis could differentiate NTSR1 agonists; endogenous in cells; host or cells: primary hippocampal neurons from homozygous NTSR1-Venus knock-in mice (C57BL/6N background)
Description: (§1) The mouse coding sequence of NTSR1 was PCR amplified from pCMV6-mNTSR1 (Origene, Rockville, MD, USA) and subcloned upstream from the IRES feature with a STOP codon before IRES into pIRES (Invitrogen, Waltham, MA, USA) and pIRES-Venus vector previously described ([Hamdan et al., 2005]) resulting in expression of either untagged NTSR1 or NTSR1-Venus. […] The pIRES vector was used The rGFP-CAAX BRET and Gq GEMTA biosensors construct were generated as previously described ([Namkung et al., 2016]; [Avet et al., 2022]).
(§2) HEK293 clonal cell line (HEK293SL cells), hereafter referred as HEK293 cells, were a gift from S. Laporte (McGill University, Montreal, Quebec, Canada) and previously described ([Namkung et al., 2016]). Cells were maintained in Dulbecco’s Modified Eagle Medium (DMEM, Wisent, Saint-Jean-Baptiste, QC, Canada) supplemented with 10% fetal bovine serum (FBS, Wisent) and 1% antibiotics [100 U/mL penicillin and 100 μg/mL streptomycin (PS); Wisent]. Cells were grown at 37°C in 5% CO2 and 90% humidity and checked for mycoplasma contamination. […] The total quantity of DNA was completed at 1 μg with salmon sperm DNA (Invitrogen, Waltham, MA, USA). […]
(§3) Forty-eight hours post-transfection, cells were washed once with phosphate-buffered saline (PBS) then incubated 1 h at 37°C in Tyrode buffer (137 mM NaCI, 0.9 mM KCI, 1 mM MgCI2, 1 1.9 mM NaHCO3, 3.6 mM NaH2PO4, 25 mM HEPES, 5.5 mM Glucose, and 1 mM CaCI2, pH 7.4). […] Bioluminescence resonance energy transfer (BRET) was then measured between RlucII (BRET energy donor) and rGFP (enhanced bystander ebBRET acceptor)–tagged proteins. BRET values were read for 1 s per well using a Mithras™ LB940 Multimode Microplate Reader (Berthold Technologies, Bad Wildbad, Germany) for concentration–response curves. ebBRET values were obtained by calculating the ratio of the light emitted by the energy acceptor over the light emitted by the energy donor (donor 410 ± 70 nm/acceptor 515 ± 20 nm). […] They were then fitted and analyzed in GraphPad Prism (v9.0, GraphPad Software, Inc., San Diego, CA, USA). […]

NTSR1-Venus [2] = molecular target: T1, NTSR1-Venus; test: NTSR1-Venus endocytosis in primary hippocampal neurons (Venus/EEA1 colocalization; live confocal imaging); format: cell-based
Description: To isolate hippocampal neurons, P0 pups were removed from the cage of NTSR1-Venus homozygous knock-in breeding pairs. […] Neurons were plated on Poly-D-Lysine (Sigma) coated surfaces at 100,000 cells per 12 mm coverslip (NeuVitro, Camas, WA, USA) in a 24-well plate for immunostaining or 50,000 cells per well of an 8 well chamber slide (Ibidi, Grafelfing, Germany) for calcium measurements. Plating media [Neurobasal A (Gibco, Grand Island, NY, USA), 1% FBS (Fisher Scientific), 2% B-27 (Gibco, Grand Island, NY, USA), 0.5 mM GlutaMAX (Gibco, Grand Island, NY, USA), and 1x Penicillin/Streptomycin (Invitrogen, Waltham, MA, USA)] was exchanged 1 h after plating to maintenance media (Neurobasal A, 2% B-27, 0.5 mM GlutaMAX, and 1x Penicillin/Streptomycin).

[3] = tested on: hippocampal neurons from Ntsr1^Venus/Venus mice; test: Intracellular calcium release (Fluo-4) in hippocampal neurons from Ntsr1^Venus/Venus mice; format: cell-based, mouse
Description: To isolate hippocampal neurons, P0 pups were removed from the cage of NTSR1-Venus homozygous knock-in breeding pairs. Pups were decapitated, brains were removed dorsal side up into fresh ice-cold Hank’s balanced salt solution (HBSS; Gibco, Grand Island, NY, USA), meninges were removed, and hippocampi were dissected into Hibernate A (Gibco, Grand Island, NY, USA) on ice. Tissue dissociation was carried out with the Papain Dissociation System according to the manufacturer’s protocol (Worthington Biochemical Corporation, Lakewood, NJ, USA). Neurons were plated on Poly-D-Lysine (Sigma) coated surfaces at 100,000 cells per 12 mm coverslip (NeuVitro, Camas, WA, USA) in a 24-well plate for immunostaining or 50,000 cells per well of an 8 well chamber slide (Ibidi, Grafelfing, Germany) for calcium measurements. Plating media [Neurobasal A (Gibco, Grand Island, NY, USA), 1% FBS (Fisher Scientific), 2% B-27 (Gibco, Grand Island, NY, USA), 0.5 mM GlutaMAX (Gibco, Grand Island, NY, USA), and 1x Penicillin/Streptomycin (Invitrogen, Waltham, MA, USA)] was exchanged 1 h after plating to maintenance media (Neurobasal A, 2% B-27, 0.5 mM GlutaMAX, and 1x Penicillin/Streptomycin). Half of the volume of media was exchanged for fresh media every 3–4 days. On day in vitro (DIV) 3 Cytosine arabinoside hydrochloride (Sigma) was added to media with a final concentration of 0.1 μM to decrease glial cell proliferation.
Hippocampal neurons were grown until DIV 7. Fluo-4 NW Calcium Assay kit (Thermo Fisher) was used according to the manufacturer’s protocol. Briefly, drugs were prepared at 4 μM stock solutions in the assay buffer provided without probenecid. […] Fluorescence was imaged with a 10x objective on an (Olympus, Shinjuku City, Tokyo, Japan) IX73 microscope (Fluo-4 em. 506 nm).
Live imaging settings of Fluo-4 were as follows, 79 ms exposure, 2 s intervals for 90 cycles (180 s). […] First regions of interest (ROI) were automatically determined using the analyze particles plug in. […] Relative fluorescence is defined as F/F0 where F corresponds to the cell fluorescence and F0 to the basal fluorescence.

NTSR1 = molecular target: T2, NTSR1 (Mus musculus, UniProt O88319); test: Gq activation ebBRET (Gq EMTA, p63RhoGEF-RlucII / rGFP-CAAX) in HEK293 cells, untagged NTSR1; format: cell-based; conditions: mean ± SEM
T2 construct: expressed in transfected cells; host or cells: HEK293 (HEK293SL)
T2 sequence (O88319 whole entry): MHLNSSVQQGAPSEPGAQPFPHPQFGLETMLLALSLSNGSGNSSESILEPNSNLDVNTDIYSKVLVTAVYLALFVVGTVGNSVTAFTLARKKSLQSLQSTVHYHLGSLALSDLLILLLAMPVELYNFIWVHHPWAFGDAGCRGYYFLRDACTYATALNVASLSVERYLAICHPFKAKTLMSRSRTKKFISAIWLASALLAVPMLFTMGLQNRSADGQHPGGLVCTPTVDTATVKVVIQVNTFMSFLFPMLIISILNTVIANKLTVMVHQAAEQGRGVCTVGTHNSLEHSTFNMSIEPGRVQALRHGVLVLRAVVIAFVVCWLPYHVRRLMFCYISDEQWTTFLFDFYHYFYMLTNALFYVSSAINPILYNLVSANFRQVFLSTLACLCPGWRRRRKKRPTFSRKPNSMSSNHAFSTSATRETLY
Description: as §1, §2, §3

T1 sequence (O88319 whole entry): as above

- EC50 (NTSR1-Venus [1]; given as LogEC50 (negative sign), read-out: Potency [LogEC50 (M)], Gq activation, NTSR1-Venus (converted)): 3.05e-08 M
- time course of NTSR1-Venus in early endosomes (NTSR1-Venus [2]; 1 μM, 5 to 60 min): remained stable
- NTSR1-Venus internalization, live confocal imaging (NTSR1-Venus [2]; 1 μM, 20 min live imaging of hippocampal neurons): robust internalization of the receptor
- percentage of endosomes containing NTSR1 after 60 min, PD149163 vs neurotensin (NTSR1-Venus [2]; 1 μM, 60 min): significantly higher percentage
- NTSR1-Venus redistribution to endosomes (% EEA1 vesicles) (NTSR1-Venus [2]; 1 μM, within the first 5 min of agonist treatment): 92.7% ± 6.9
- EC50 (NTSR1-Venus [2]; Ntsr1^Venus/Venus hippocampal neurons, 5 min of agonist treatment, read-out: EC50, NTSR1-Venus endocytosis (ratio of Venus and EEA1 positive to total EEA1 positive endosomes)): 465 nM
- EC50 (NTSR1; given as LogEC50 (negative sign), read-out: Potency [LogEC50 (M)], Gq activation, NTSR1 (converted)): 2.81e-08 M
SMILES: CCOC(=O)[C@H](CC(C)C)NC(=O)[C@@H](NC(=O)[C@H](Cc1c[nH]c2ccccc12)NC(=O)[C@@H]1CCCN1C(=O)[C@H](CCCCN)NC[C@@H](N)CCCCN)C(C)(C)C [PD149163, PD149163 tetrahydrochloride hydrate] (H-[X1]PW[Tle]L-OEt; N-terminus and C-terminus assumed)
- Efficacy (Raw BRET), Gq activation, NTSR1-Venus (NTSR1-Venus [1]): 0.476 Raw BRET and 0.476 ± 0.009 Raw BRET
- intracellular calcium peak increase ([3]; 0.1 μM): 2 fold
- intracellular calcium peak increase ([3]; 1 μM): 2 fold
- Efficacy (Raw BRET), Gq activation, NTSR1 (NTSR1): 0.220 Raw BRET and 0.220 ± 0.013 Raw BRET
